Test results published in BigSolDB 2.1.

COC(=O)N(OC)c1ccccc1COc1ccn(-c2ccc(Cl)cc2)n1
solubility (mole fraction)
Conditions | 283.15 K | 288.15 K | 293.15 K | 298.15 K | 303.15 K | 308.15 K
in cyclohexane | 0.000942 | 0.00148 | 0.00217 | 0.00311 | 0.00448 | 0.00609
in ethanol | 0.00458 | 0.00601 | 0.00866 | 0.0117 | 0.0184 | 0.0326
in isobutanol | 0.00283 | 0.00377 | 0.00527 | 0.00758 | 0.0115 | 0.0186
in isopropanol | 0.00248 | 0.00332 | 0.00481 | 0.00687 | 0.0102 | 0.0163
in n-butanol | 0.00534 | 0.00663 | 0.00916 | 0.0132 | 0.0214 | 0.0343
